# From ChEMBL document CHEMBL3044779, “The action of herbicides on fatty acid biosynthesis and elongation in barley and cucumber” (Pest Manag Sci, 2010)
# The source made the active and inactive calls. The calls are words filed in the database; no cut-off is given here.
# Key:
# Cucumis sativus [1] = experiment: Inhibition of fatty acid synthesis in Cucumis sativus (cucumber) using [14C]acetate assessed as [14C]-labeled 16C fatty acid level at 300 uM after 3 hr by liquid scintillation counting (reference value: 27.6 +/- 5.1%); format: functional; parameters: scale not given: the % may be the effect or the level left
# Hordeum vulgare [2] = experiment: Inhibition of fatty acid synthesis in Hordeum vulgare (barley) using [14C]malonate assessed as [14C]-labeled 18C fatty acid level at 300 uM after 3 hr by liquid scintillation counting (reference value: 12.5 +/- 3.9 %); format: functional; parameters: scale not given: the % may be the effect or the level left
# Hordeum vulgare [3] = experiment: Inhibition of fatty acid synthesis in Hordeum vulgare (barley) using [14C]malonate assessed as [14C]-labeled 22C fatty acid level at 300 uM after 3 hr by liquid scintillation counting (reference value: 32.8 +/- 2.3%); format: functional; parameters: scale not given: the % may be the effect or the level left
# Hordeum vulgare [4] = experiment: Inhibition of fatty acid synthesis in Hordeum vulgare (barley) using [14C]acetate assessed as reduction in [14C]-labeled 24C fatty acid level at 300 uM after 3 hr by liquid scintillation counting; format: functional, organism-based
# Cucumis sativus [5] = experiment: (§1) Inhibition of fatty acid synthesis in Cucumis sativus (cucumber) assessed as inhibition of [14C]acetate incoporation in total fatty acids at 300 uM measured as total disintegration per g of fresh weight after 3 hr by liquid scintillation counting (reference value: 4.4 +/- 1 dpm x 10^6 g'1 fresh wt); format: functional
# Cucumis sativus [6] = experiment: Inhibition of fatty acid synthesis in Cucumis sativus (cucumber) using [14C]acetate assessed as reduction in [14C]-labeled 20C fatty acid level at 300 uM after 3 hr by liquid scintillation counting relative to control; format: functional, organism-based
# Hordeum vulgare [7] = experiment: Inhibition of fatty acid synthesis in Hordeum vulgare (barley) assessed as inhibition of [14C]malonate incoporation in total fatty acids at 300 uM measured as total disintegration per g of fresh weight after 3 hr by liquid scintillation counting (reference value: 9.4 +/- 2.5 dpm x 10^6 g'1 fresh wt); format: functional
# Cucumis sativus [8] = experiment: Inhibition of fatty acid synthesis in Cucumis sativus (cucumber) using [14C]malonate assessed as [14C]-labeled 20C fatty acid level at 300 uM after 3 hr by liquid scintillation counting (reference value: 11.7 +/- 2%); format: functional; parameters: scale not given: the % may be the effect or the level left
# Hordeum vulgare [9] = experiment: Inhibition of fatty acid synthesis in Hordeum vulgare (barley) using [14C]malonate assessed as [14C]-labeled 16C fatty acid level at 300 uM after 3 hr by liquid scintillation counting (reference value: 8.1 %); format: functional; parameters: scale not given: the % may be the effect or the level left
# Hordeum vulgare [10] = experiment: Inhibition of fatty acid synthesis in Hordeum vulgare (barley) using [14C]malonate assessed as [14C]-labeled 24C fatty acid level at 300 uM after 3 hr by liquid scintillation counting (reference value: 16.2 +/- 1.1 %); format: functional; parameters: scale not given: the % may be the effect or the level left
# Cucumis sativus [11] = experiment: Inhibition of fatty acid synthesis in Cucumis sativus (cucumber) using [14C]malonate assessed as [14C]-labeled 18C fatty acid level at 300 uM after 3 hr by liquid scintillation counting (reference value: 14.3 +/- 2%); format: functional; parameters: scale not given: the % may be the effect or the level left
# Cucumis sativus [12] = experiment: Inhibition of fatty acid synthesis in Cucumis sativus (cucumber) using [14C]malonate assessed as [14C]-labeled 16C fatty acid level at 300 uM after 3 hr by liquid scintillation counting (reference value: 5.1 +/- 0.9%); format: functional; parameters: scale not given: the % may be the effect or the level left
# Cucumis sativus [13] = experiment: Inhibition of fatty acid synthesis in Cucumis sativus (cucumber) using [14C]malonate assessed as [14C]-labeled 24C fatty acid level at 300 uM after 3 hr by liquid scintillation counting (reference value: 26.4 +/- 5.5%); format: functional; parameters: scale not given: the % may be the effect or the level left
# Hordeum vulgare [14] = experiment: Inhibition of fatty acid synthesis in Hordeum vulgare (barley) using [14C]acetate assessed as reduction in [14C]-labeled 20C fatty acid level at 300 uM after 3 hr by liquid scintillation counting; format: functional, organism-based
# Cucumis sativus [15] = experiment: Inhibition of fatty acid synthesis in Cucumis sativus (cucumber) using [14C]acetate assessed as [14C]-labeled 18C fatty acid level at 300 uM after 3 hr by liquid scintillation counting (reference value: 33.5 +/- 1.5%); format: functional; parameters: scale not given: the % may be the effect or the level left
# Cucumis sativus [16] = experiment: Inhibition of fatty acid synthesis in Cucumis sativus (cucumber) using [14C]malonate assessed as [14C]-labeled 22C fatty acid level at 300 uM after 3 hr by liquid scintillation counting (reference value: 42.5 +/- 0.6%); format: functional; parameters: scale not given: the % may be the effect or the level left
# Hordeum vulgare [17] = experiment: Inhibition of fatty acid synthesis in Hordeum vulgare (barley) using [14C]malonate assessed as [14C]-labeled 20C fatty acid level at 300 uM after 3 hr by liquid scintillation counting (reference value: 6.5 +/- 3.1 %); format: functional; parameters: scale not given: the % may be the effect or the level left
# Hordeum vulgare [18] = experiment: Inhibition of fatty acid synthesis in Hordeum vulgare (barley) assessed as inhibition of [14C]acetate incoporation in total fatty acids at 300 uM measured as total disintegration per g of fresh weight after 3 hr by liquid scintillation counting (reference value: 5.8 +/- 1.6 dpm x 10^6 g'1 fresh wt); format: functional
# Hordeum vulgare [19] = experiment: Inhibition of fatty acid synthesis in Hordeum vulgare (barley) using [14C]acetate assessed as reduction in [14C]-labeled 22C fatty acid level at 300 uM after 3 hr by liquid scintillation counting; format: functional, organism-based
# Hordeum vulgare [20] = experiment: Inhibition of fatty acid synthesis in Hordeum vulgare (barley) using [14C]acetate assessed as [14C]-labeled 16C fatty acid level at 300 uM after 3 hr by liquid scintillation counting (reference value: 30.6 +/- 0.2%); format: functional; parameters: scale not given: the % may be the effect or the level left
# Hordeum vulgare [21] = experiment: Inhibition of fatty acid synthesis in Hordeum vulgare (barley) using [14C]acetate assessed as [14C]-labeled 18C fatty acid level at 300 uM after 3 hr by liquid scintillation counting (reference value: 57 +/- 0.9%); format: functional; parameters: scale not given: the % may be the effect or the level left
# Cucumis sativus [22] = experiment: as §1, with “of [14C]malonate” for “of [14C]acetate”, “value: 16.3” for “value: 4.4”, “+/- 1.1” for “+/- 1”; format: functional
compound,measurement,setting,value
COCCN(C(=O)CCl)c1c(C)cccc1C [DIMETHACHLOR],Activity,Cucumis sativus [1],36.2%
same,Activity,Hordeum vulgare [2],7.3%
same,Activity,Hordeum vulgare [3],18.1%
same,inhibition,Hordeum vulgare [4],Active
same,Activity,Cucumis sativus [5],2.9 ×10⁶ dpm
same,inhibition,Cucumis sativus [6],Active
same,Activity,Hordeum vulgare [7],6.8 ×10⁶ dpm
same,Activity,Cucumis sativus [8],11.2%
same,Activity,Hordeum vulgare [9],14%
same,Activity,Hordeum vulgare [10],5.8%
same,Activity,Cucumis sativus [11],46.8%
same,Activity,Cucumis sativus [12],20.4%
same,Activity,Cucumis sativus [13],9.3%
same,inhibition,Hordeum vulgare [14],Active
same,Activity,Cucumis sativus [15],63.9%
same,Activity,Cucumis sativus [16],12.5%
same,Activity,Hordeum vulgare [17],8.5%
same,Activity,Hordeum vulgare [18],5.9 ×10⁶ dpm
same,inhibition,Hordeum vulgare [19],Active
same,Activity,Hordeum vulgare [20],36.1%
same,Activity,Hordeum vulgare [21],63.9%
same,Activity,Cucumis sativus [22],9.4 ×10⁶ dpm
